Data taken from BindingDB's records for patent US9708333 (Incyte Corporation, 2017).

Assays:
[1] = biological target: Tyrosine-protein kinase JAK1 (Homo sapiens, UniProt P23458); assay: JAK1 Assay
[2] = biological target: T1, Phosphatidylinositol 4,5-bisphosphate 3-kinase catalytic subunit delta isoform (Homo sapiens, UniProt O00329); assay: PI3K Delta Assay
T1 sequence (O00329 whole entry): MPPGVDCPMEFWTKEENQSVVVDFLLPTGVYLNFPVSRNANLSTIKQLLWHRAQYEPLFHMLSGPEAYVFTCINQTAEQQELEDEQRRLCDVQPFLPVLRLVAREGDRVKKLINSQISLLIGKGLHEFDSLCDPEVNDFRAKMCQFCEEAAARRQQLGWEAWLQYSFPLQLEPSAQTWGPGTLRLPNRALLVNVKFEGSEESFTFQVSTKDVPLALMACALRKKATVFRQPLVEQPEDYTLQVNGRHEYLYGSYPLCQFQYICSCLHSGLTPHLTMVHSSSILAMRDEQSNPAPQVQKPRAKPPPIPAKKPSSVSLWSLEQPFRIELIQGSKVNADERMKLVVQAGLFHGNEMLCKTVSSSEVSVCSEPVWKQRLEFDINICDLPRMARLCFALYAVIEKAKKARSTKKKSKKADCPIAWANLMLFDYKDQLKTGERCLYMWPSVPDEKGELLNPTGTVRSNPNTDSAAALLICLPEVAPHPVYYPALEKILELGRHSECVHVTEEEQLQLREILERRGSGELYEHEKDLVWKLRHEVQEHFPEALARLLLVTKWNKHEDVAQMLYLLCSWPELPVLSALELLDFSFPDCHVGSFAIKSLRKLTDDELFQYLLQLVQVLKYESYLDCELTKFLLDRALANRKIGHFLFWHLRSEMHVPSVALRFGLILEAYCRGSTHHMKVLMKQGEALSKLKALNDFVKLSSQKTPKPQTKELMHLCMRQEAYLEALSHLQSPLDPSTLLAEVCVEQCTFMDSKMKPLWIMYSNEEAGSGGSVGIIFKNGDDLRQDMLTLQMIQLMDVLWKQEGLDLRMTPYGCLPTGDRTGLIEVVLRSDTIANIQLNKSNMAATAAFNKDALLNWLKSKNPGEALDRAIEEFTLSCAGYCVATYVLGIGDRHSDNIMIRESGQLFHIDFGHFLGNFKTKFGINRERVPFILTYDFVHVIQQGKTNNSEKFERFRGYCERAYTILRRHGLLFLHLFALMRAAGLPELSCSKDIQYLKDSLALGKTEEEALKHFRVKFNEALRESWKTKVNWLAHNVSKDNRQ
Text: Selectivity can be measured by methods routine in the art. In some embodiments, selectivity can be tested at the Km ATP concentration of each enzyme. In some embodiments, the selectivity of compounds described herein can be determined by cellular assays associated with particular PI3K kinase activity.

Tyrosine-protein kinase JAK1, sequence (P23458 whole entry, canonical isoform): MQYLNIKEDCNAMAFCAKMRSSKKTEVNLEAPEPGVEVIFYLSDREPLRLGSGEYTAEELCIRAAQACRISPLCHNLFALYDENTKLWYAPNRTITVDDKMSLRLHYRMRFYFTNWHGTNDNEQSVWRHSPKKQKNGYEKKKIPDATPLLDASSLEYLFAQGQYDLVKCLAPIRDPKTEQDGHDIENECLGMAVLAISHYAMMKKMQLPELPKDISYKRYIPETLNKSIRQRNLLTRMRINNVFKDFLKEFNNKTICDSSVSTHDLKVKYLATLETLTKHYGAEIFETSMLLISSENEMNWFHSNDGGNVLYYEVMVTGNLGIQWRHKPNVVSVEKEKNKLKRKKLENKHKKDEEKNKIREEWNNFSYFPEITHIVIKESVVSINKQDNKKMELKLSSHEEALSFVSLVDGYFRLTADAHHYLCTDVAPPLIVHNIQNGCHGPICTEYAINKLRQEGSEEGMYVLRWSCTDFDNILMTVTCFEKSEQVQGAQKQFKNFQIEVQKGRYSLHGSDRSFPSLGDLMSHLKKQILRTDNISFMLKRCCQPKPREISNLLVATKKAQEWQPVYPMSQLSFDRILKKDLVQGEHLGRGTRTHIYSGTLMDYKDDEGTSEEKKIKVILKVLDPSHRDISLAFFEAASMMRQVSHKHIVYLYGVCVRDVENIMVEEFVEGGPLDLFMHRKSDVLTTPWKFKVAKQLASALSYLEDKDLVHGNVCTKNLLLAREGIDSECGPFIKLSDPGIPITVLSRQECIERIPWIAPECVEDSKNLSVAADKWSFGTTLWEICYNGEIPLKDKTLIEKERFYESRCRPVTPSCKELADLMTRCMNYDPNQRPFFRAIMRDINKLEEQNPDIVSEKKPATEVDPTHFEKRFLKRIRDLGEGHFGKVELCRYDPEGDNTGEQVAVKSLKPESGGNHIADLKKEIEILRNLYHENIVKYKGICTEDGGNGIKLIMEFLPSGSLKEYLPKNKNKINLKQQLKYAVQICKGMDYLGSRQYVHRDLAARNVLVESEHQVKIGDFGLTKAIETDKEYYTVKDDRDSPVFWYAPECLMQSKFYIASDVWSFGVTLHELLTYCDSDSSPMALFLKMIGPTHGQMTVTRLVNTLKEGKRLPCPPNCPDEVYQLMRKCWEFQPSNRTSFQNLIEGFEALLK

Structure (SMILES) | IC50 [1] [µM] | IC50 [2] [µM]
N#CCC(CN1CCN(C(=O)c2ccc(C#N)cc2F)CC1)n1cc(-c2ncnc3[nH]ccc23)cn1 (configuration not stated) [4-[(4-{3-cyano-2-[4-(7H-pyrrolo[2,3-d]pyrimidin-4-yl)-1H-pyrazol-1-yl]propyl}piperazin-1-yl)carbonyl]-3-fluorobenzonitrile] | < 0.01 | –
CCOc1c(C(C)n2nc(C)c3c(N)ncnc32)cc(Cl)c(F)c1C1CNC(=O)C1 (configuration not stated) [4-{3-[1-(4-amino-3-methyl-1H-pyrazolo[3,4 d]pyrimidin-1-yl)ethyl]-5-chloro-2-ethoxy-6-fluorophenyl}pyrrolidin-2-one] | – | 0.125
